{"source": "patent US8557737B2", "about": "“Methods of altering poppy characteristics” (priority 2005, dated 2013)", "format_in_all_cases": "in vivo, Papaver somniferum", "key": {"poppy crops [1]": {"tested_on": "poppy crops", "assay": "Example 1: field trial, metsulfuron-methyl 36 or 120 mg/ha at 12-14 leaf and ground cover, morphine crop", "description": "(§1) All trials were conducted on poppy crops. Seed was treated with Thiram (5.6 g of Thiram 800/kg seed) and Apron (4 g/kg) and sown at a rate of approximately 750 g/ha. Fertilisers were applied at sowing. Most commonly, either 50:50 lime:superphosphate/triple superphosphate at 125 kg/ha, or lime:superphosphate at 250 kg/ha, were mixed with seed and drilled at a depth of 15 mm. In the same operation, NPK (nitrogen:phosphorus:potassium), at various rates, was banded 75 mm below the seed, unless otherwise stated. All crops were subjected to herbicide sprays for weed control, fungicide sprays for disease control, insecticide sprays if appropriate and were irrigated as required.\n(§2) All spray applications were made with a precision sprayer, using Silvan Lurmark flat-fan, low-drift nozzles (LD110-0015). Spray equipment was calibrated to deliver 153 L water/ha.\n(§3) At harvest, a 2 m×4 m quadrat was placed in each plot (3 m×6 m, unless otherwise stated) and capsules hand-picked from this area. Capsules were broken up, seed and capsule material separated and weighed. Capsule moisture readings were taken with a moisture meter. Alkaloid yield data were calculated on Pesticide Research Manager (version 5 for Windows) using the formulae below. Briefly, capsule weight was adjusted for moisture to a dry weight, 5% of seed weight was added to this (this amount of capsule material regularly occurs in seed samples after processing) to give a capsule weight per plot. Seed weight was adjusted to 95% of crude weight. Straw weights were determined by multiplying dry capsule weight by 1.3 (estimated amount of stem material in a commercial harvest) and adjusted to 11% moisture. When Lontrel was applied to crops exact capsule and seed weight data were entered. Analyses of variance and a Multiple Range Test were performed on data using Pesticide Research Manager. Significant differences (P=0.05) between treatments are denoted by different lower case letters adjacent to treatment means in the tables of results.\nMetsulfuron-methyl (Compound 1) was applied at a rate of 36 or 120 mg/ha at 12-14 leaf and ground cover growth stages, in a morphine crop."}, "poppy crops [2]": {"tested_on": "poppy crops", "assay": "Example 3: field trial, metsulfuron-methyl alone or tank-mixed with Sunny at early-mid run-up, morphine crop", "conditions": "COMPOUND 1 120 MG/HA + PULSE .2 % V/V at E-MRU", "description": "as §1, §2, §3\nTrial to evaluate metsulfuron-methyl (Compound 1) (120 mg/ha) applied alone, or tank-mixed with Sunny (1 L/ha=50 g/ha), in a morphine crop. Treatments were applied to crop at early-mid run-up, plant heights were measured at green capsule stage."}, "poppy crops [3]": {"tested_on": "poppy crops", "assay": "Example 6: field trial, one or two applications of metsulfuron-methyl after Sunny versus metsulfuron-methyl alone", "conditions": "COMPOUND 1 120 MG/HA + PULSE .2 % V/V at ERU and at BE (two applications, alone)", "description": "as §1, §2, §3\nTrial to evaluate one or two applications of 120 mg/ha metsulfuron-methyl (Compound 1) after 1 L/ha Sunny, and compare with two applications of metsulfuron-methyl alone. Sunny was applied with crop at 12-14 leaf, metsulfuron-methyl to crop at 12-14 leaf, early run-up and bud-emergence stages. Plant heights were measured at early-full flower and percent lodging was measured on the day of capsule harvest."}, "poppy crops [4]": {"tested_on": "poppy crops", "assay": "Example 12: field trial, metsulfuron-methyl, Sunny and metsulfuron-methyl+Sunny at row cover, early run-up, late run-up, morphine crop", "conditions": "Trt 3: COMPOUND 1 120 MG/HA + PULSE .2% V/V at RC, ERU and LRU", "description": "as §1, §2, §3\nTrial to evaluate applications of metsulfuron-methyl (Compound 1), Sunny and metsulfuron-methyl+Sunny, in a morphine crop. Treatment sprays were applied to crop at row cover, early run-up and late run-up. Plant heights were measured at end of flowering."}, "poppy crops [5]": {"tested_on": "poppy crops", "assay": "Example 13: field trial, metsulfuron-methyl, Lontrel and metsulfuron-methyl+Lontrel, morphine crop", "conditions": "Trt 3: COMPOUND 1 120 MG/HA + PULSE .2% V/V at RC, ERU and LRU", "description": "as §1, §2, §3\nTrial to evaluate applications of metsulfuron-methyl (Compound 1), Lontrel and metsulfuron-methyl+Lontrel, in a morphine crop. Treatment sprays were applied to crop at row cover, early run-up and late run-up. Plant heights were measured at green capsule stage. Lodging was assessed at harvest."}, "poppy crops [6]": {"tested_on": "poppy crops", "assay": "Example 18: field trial, triasulfuron, mesosulfuron-methyl and metsulfuron-methyl at row cover, mid run-up and early hook, morphine crop", "conditions": "Trt 2: COMPOUND 1 120 MG/HA + PULSE .2% V/V at RC, MRU and LRU", "description": "as §1, §2\nas §3, with “Manager.” for “Manager. Significant differences (P=0.05) between treatments are denoted by different lower case letters adjacent to treatment means in the tables of results.”\nTrial to evaluate applications of triasulfuron, mesosulfuron-methyl and metsulfuron-methyl, in a morphine crop. […] Plant heights were measured 5 weeks after last application and lodging at capsule harvest."}}}
{"smiles": "COC(=O)c1ccccc1S(=O)(=O)NC(=O)Nc1nc(C)nc(OC)n1", "note": "[Compound 1, metsulfuron-methyl]", "values": [{"measurement": "CAPSULE/SEED RATIO", "setting": "poppy crops [1]; 36 MG/HA at 12-14LF", "value": 0.603}, {"measurement": "CROP WEIGHT", "setting": "poppy crops [1]; 36 MG/HA at 12-14LF", "value": 3.78, "unit": "t/ha"}, {"measurement": "MORPHINE", "setting": "poppy crops [1]; 36 MG/HA at 12-14LF", "value": 24.25, "unit": "kg/ha"}, {"measurement": "SEED", "setting": "poppy crops [1]; 36 MG/HA at 12-14LF", "value": 2020, "unit": "kg/ha"}, {"measurement": "STRAW", "setting": "poppy crops [1]; 36 MG/HA at 12-14LF", "value": 1757, "unit": "kg/ha"}, {"measurement": "STRAW MORPHINE", "setting": "poppy crops [1]; 36 MG/HA at 12-14LF", "value": 1.38, "unit": "%"}, {"measurement": "CAPSULE/SEED RATIO", "setting": "poppy crops [1]; 120 MG/HA at 12-14LF", "value": 0.673}, {"measurement": "CROP WEIGHT", "setting": "poppy crops [1]; 120 MG/HA at 12-14LF", "value": 3.37, "unit": "t/ha"}, {"measurement": "MORPHINE", "setting": "poppy crops [1]; 120 MG/HA at 12-14LF", "value": 24.40, "unit": "kg/ha"}, {"measurement": "SEED", "setting": "poppy crops [1]; 120 MG/HA at 12-14LF", "value": 1710, "unit": "kg/ha"}, {"measurement": "STRAW", "setting": "poppy crops [1]; 120 MG/HA at 12-14LF", "value": 1660, "unit": "kg/ha"}, {"measurement": "STRAW MORPHINE", "setting": "poppy crops [1]; 120 MG/HA at 12-14LF", "value": 1.47, "unit": "%"}, {"measurement": "CAPSULE/SEED RATIO", "setting": "poppy crops [1]; 120 MG/HA at GC (ground cover)", "value": 1.253}, {"measurement": "CROP WEIGHT", "setting": "poppy crops [1]; 120 MG/HA at GC (ground cover)", "value": 3.10, "unit": "t/ha"}, {"measurement": "MORPHINE", "setting": "poppy crops [1]; 120 MG/HA at GC (ground cover)", "value": 26.19, "unit": "kg/ha"}, {"measurement": "SEED", "setting": "poppy crops [1]; 120 MG/HA at GC (ground cover)", "value": 1105, "unit": "kg/ha"}, {"measurement": "STRAW", "setting": "poppy crops [1]; 120 MG/HA at GC (ground cover)", "value": 1999, "unit": "kg/ha"}, {"measurement": "STRAW MORPHINE", "setting": "poppy crops [1]; 120 MG/HA at GC (ground cover)", "value": 1.31, "unit": "%"}, {"measurement": "CAPSULE/SEED RATIO", "setting": "poppy crops [2]", "value": 0.984, "unit": "ab"}, {"measurement": "CROP WEIGHT", "setting": "poppy crops [2]", "value": 1.52, "unit": "ab t/ha"}, {"measurement": "MORPHINE", "setting": "poppy crops [2]", "value": 20.88, "unit": "a kg/ha"}, {"measurement": "SEED", "setting": "poppy crops [2]", "value": 640, "unit": "c kg/ha"}, {"measurement": "STRAW", "setting": "poppy crops [2]", "value": 884, "unit": "ab kg/ha"}, {"measurement": "STRAW MORPHINE", "setting": "poppy crops [2]", "value": 2.36, "unit": "a %"}, {"measurement": "PLANT HEIGHT", "setting": "poppy crops [2]; measured at green capsule stage", "value": 101.0, "unit": "a cm"}, {"measurement": "CAPSULE/SEED RATIO", "setting": "poppy crops [3]", "value": 6.140, "unit": "a"}, {"measurement": "CROP WEIGHT", "setting": "poppy crops [3]", "value": 2.46, "unit": "c t/ha"}, {"measurement": "MORPHINE", "setting": "poppy crops [3]", "value": 38.8, "unit": "b kg/ha"}, {"measurement": "SEED", "setting": "poppy crops [3]", "value": 269, "unit": "c kg/ha"}, {"measurement": "STRAW", "setting": "poppy crops [3]", "value": 2194, "unit": "a kg/ha"}, {"measurement": "STRAW MORPHINE", "setting": "poppy crops [3]", "value": 1.77, "unit": "b %"}, {"measurement": "PLANT HEIGHT", "setting": "poppy crops [3]; measured at early-full flower", "value": 77.4, "unit": "cm·days"}, {"measurement": "LODGING", "setting": "poppy crops [3]; measured on the day of capsule harvest", "value": 1.0, "unit": "b %"}, {"measurement": "CAPS/SEED RATIO", "setting": "poppy crops [4]", "value": 10.444, "unit": "a"}, {"measurement": "CROP WEIGHT", "setting": "poppy crops [4]", "value": 2.24, "unit": "b t/ha"}, {"measurement": "MORPHINE", "setting": "poppy crops [4]", "value": 47.11, "unit": "b kg/ha"}, {"measurement": "SEED", "setting": "poppy crops [4]", "value": 143, "unit": "c kg/ha"}, {"measurement": "STRAW", "setting": "poppy crops [4]", "value": 2099, "unit": "a kg/ha"}, {"measurement": "STRAW MORPHINE", "setting": "poppy crops [4]", "value": 2.24, "unit": "c %"}, {"measurement": "HEIGHT", "setting": "poppy crops [4]; height at end of flowering", "value": 83.4, "unit": "bc cm"}, {"measurement": "CAPS/SEED RATIO", "setting": "poppy crops [5]", "value": 3.431, "unit": "a"}, {"measurement": "CROP WEIGHT", "setting": "poppy crops [5]", "value": 3.11, "unit": "b t/ha"}, {"measurement": "MORPHINE", "setting": "poppy crops [5]", "value": 50.81, "unit": "a kg/ha"}, {"measurement": "SEED", "setting": "poppy crops [5]", "value": 582, "unit": "c kg/ha"}, {"measurement": "STRAW", "setting": "poppy crops [5]", "value": 2530, "unit": "a kg/ha"}, {"measurement": "STRAW MORPHINE", "setting": "poppy crops [5]", "value": 2.01, "unit": "a %"}, {"measurement": "LODGING", "setting": "poppy crops [5]; assessed at harvest", "value": 2.2, "unit": "b %"}, {"measurement": "HEIGHT", "setting": "poppy crops [5]; height at green capsule stage", "value": 95.8, "unit": "b cm"}, {"measurement": "CAPS/SEED RATIO", "setting": "poppy crops [6]", "value": 2.543, "unit": "a"}, {"measurement": "CROP WEIGHT", "setting": "poppy crops [6]", "value": 2.87, "unit": "b t/ha"}, {"measurement": "MORPHINE", "setting": "poppy crops [6]", "value": 46.52, "unit": "b kg/ha"}, {"measurement": "SEED", "setting": "poppy crops [6]", "value": 643, "unit": "c kg/ha"}, {"measurement": "STRAW", "setting": "poppy crops [6]", "value": 2186, "unit": "a kg/ha"}, {"measurement": "STRAW MORPHINE", "setting": "poppy crops [6]", "value": 2.13, "unit": "c %"}, {"measurement": "PLANT HEIGHT", "setting": "poppy crops [6]; 5 weeks after last application", "value": 88.0, "unit": "cm·days"}, {"measurement": "LODGING", "setting": "poppy crops [6]; at capsule harvest", "value": 1.8, "unit": "a %"}]}
